This is an account of results in BindingDB's records for patent US8829190 (Leo Pharma, 2014).

This assay has as its target cAMP-specific 3',5'-cyclic phosphodiesterase 4D (Homo sapiens, UniProt Q08499). Put plainly: Binding Assay. On the procedure: Human recombinant PDE4 (Gene bank accession no NM006203) was incubated for 1 hour with the test compound at concentrations up to 10 μM, with cAMP (1x10-5M), and with a low amount (0.021 MBq) of radioactively labelled cAMP. At the end of the incubation, the cleavage of the substrate was evaluated by the binding of the AMP product to SPA beads, which generate chemo luminescence when bound to the radioactive tracer. The AMP product inhibited the binding of the radioactive tracer to the beads, and the luminescent signal was competed.

cAMP-specific 3',5'-cyclic phosphodiesterase 4D, sequence (Q08499 whole entry): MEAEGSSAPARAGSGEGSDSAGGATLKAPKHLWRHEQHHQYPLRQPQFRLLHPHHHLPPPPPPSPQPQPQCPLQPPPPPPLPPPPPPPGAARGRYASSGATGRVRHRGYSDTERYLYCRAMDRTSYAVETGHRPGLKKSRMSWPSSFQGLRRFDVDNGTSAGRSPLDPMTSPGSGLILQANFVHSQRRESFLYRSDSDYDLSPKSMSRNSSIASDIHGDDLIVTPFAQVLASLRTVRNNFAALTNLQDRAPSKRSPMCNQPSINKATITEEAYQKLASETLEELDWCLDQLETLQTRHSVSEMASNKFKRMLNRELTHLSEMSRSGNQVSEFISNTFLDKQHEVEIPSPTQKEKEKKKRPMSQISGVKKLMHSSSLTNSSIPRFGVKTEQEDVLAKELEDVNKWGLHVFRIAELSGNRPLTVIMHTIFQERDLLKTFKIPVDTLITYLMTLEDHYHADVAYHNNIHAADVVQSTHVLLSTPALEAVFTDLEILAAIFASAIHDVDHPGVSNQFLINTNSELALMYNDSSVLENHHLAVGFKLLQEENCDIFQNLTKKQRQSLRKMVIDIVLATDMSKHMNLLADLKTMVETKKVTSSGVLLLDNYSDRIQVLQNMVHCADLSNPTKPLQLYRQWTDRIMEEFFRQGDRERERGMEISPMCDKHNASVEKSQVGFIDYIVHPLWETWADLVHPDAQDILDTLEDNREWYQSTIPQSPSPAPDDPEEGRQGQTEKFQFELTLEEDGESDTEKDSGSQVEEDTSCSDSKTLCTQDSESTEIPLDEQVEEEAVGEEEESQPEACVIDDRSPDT

One may read the IC50 as the concentration that inhibits the measured activity by half. A high value points to lower potency. On to `COc1ccc(C(=O)Cc2ccccc2Cl)n2nc(C3CC3)nc12` [US8829190, 127], for which the IC50 was 0.046 µM.
